Experimental data taken from patent US5384309A, “Cyclized peptides and their use as platelet aggregation inhibitors” (Genentech, Inc., priority 1989, dated 1995).
Where two headings read alike, the source gives them in different places. Positions of bridges follow the written chain, without caps; N, C: chain ends. Non-standard residues stand in square brackets, D forms with d. Residues, ends and D or L forms follow the SMILES beside them. No end group written: not given here.

Columns and labels:
[1] = molecular target: human platelet rich plasma (PRP) platelets (Homo sapiens, UniProt P05106+P08514); test: platelet aggregation inhibition in human platelet rich plasma (ADP induced); type: cell-based; conditions: ADP 8 uM
Protocol: In addition to the GP llbllla ELISA assay, platelet aggregation assays may be performed in human platelet rich plasma (PRP). Fifty milliliters of whole human blood (9 parts) is drawn on 3.6% sodium citrate (1 part) from a donor who has not taken aspirin or related medications for at least two weeks. The blood is centrifuged at 160 ×g for 10 min at […] and then allowed to stand for 5 min after which the PRP is decanted. Platelet poor plasma (PPP) is isolated from the remaining blood after centrifugation at 2000×g for 25 min. The platelet count of the PRP was diluted to ca. 300000 per microliter with PPP.
A 225 uL aliquot of PRP plus 25 uL of either a dilution of the test sample or a control (PBS) is incubated for 5 min in a Chrono-log Whole Blood Aggregometer at 25° C. An aggregatng agent (collagen, 1 ug/ml; U46619, 100 ng/ml; or ADP, 8 uM) is added and the platelet aggregation recorded.
Fifty milliliters of whole human blood (9 parts) is drawn on 3.6% sodium citrate (1 part) from a donor who has not taken aspirin or related medications for at least two weeks. The blood is centrifuged at 160×g for 10 min at 22° C. and then allowed to stand for 5 min after which the PRP is decanted. Platelet poor plasma (PPP) is isolated from the remaining blood after centrifugation at 2000×g for 25 min. The platelet count of the PRP was diluted to ca. 300000 per microliter with PPP.
A 225 uL aliquot of PRP plus 25 uL of either a dilution of the test sample or a control (PBS) is incubated for 5 min in a Chrono-log Whole Blood Aggregometer at 25° C. Adenosine diphosphate (ADP, 8 uM) is added and the platelet aggregation recorded.

[2] = molecular target: T1, purified human platelet GP llbllla receptor (Homo sapiens, UniProt P05106+P08514); test: biochemical; type: binding; conditions: for IC50: ELISA, fibrinogen-coated plates, solubilized GP llbllla, read-out: IC50, inhibition of fibrinogen binding to the GP llbllla platelet receptor
T1 construct: Platelet GP llbllla was prepared by the method of Fitzgerald, et al; from tissue; host or cells: human platelets
Protocol: In-vitro biological activity of the compounds of Formula I was monitored using a modified fibrinogen--GP llbllla ELISA based on the method of Nachman and Leung (J. Clin. Invest. (1982) 69, 263-269) which measures the inhibition of fibrinogen binding to purified human platelet GP llbllla receptor. Human fibrinogen was prepared by the method of Lipinska, et al. (J. Lab. Grin. Med. (1974) 84, 509-516). Platelet GP llbllla was prepared by the method of Fitzgerald, et al. (Anal. Blochem. (1985) 151,169-177.
Microtiter plates are coated with fibrinogen (10 ug/ml) and then blocked with TACTS buffer containing 0.5% bovine serum albumin (BSA). (TACTS buffer contains 20 mM Tris. HCl, pH 7.5, 0.02% sodium azide, 2 mM calcium chloride, 0.05% Tween 20, 150 mM sodium chloride.) The plate is washed with phosphate buffered saline (PBS) containing 0.01% Tween 20 and the sample to be determined added, followed by addition of solubilized GP llbllla receptor (40 ug/ml) in TACTS, 0.5% BSA. After incubation, the plate is washed and 1 ug/ml of murine anti-platelet monoclonal antibody AP3 (P. J. Newman et al. Blood (1985) 65, 227-232) is added. After another wash a goat anti-mouse IgG conjugated to horseradish peroxidase is added. A final wash is performed and developing reagent buffer (10 mg o-phenylenediamine dihydrochloride, 0.0212% hydrogen peroxide, 0.22 mM citrate, 50 mM phosphate, pH 5.0) is added and then incubated until color develops. The reaction is stopped with 1N sulfuric acid and the absorbance at 492 nm is recorded.
Microtiter plates are coated with fibrinogen (10 ug/ml) and then blocked with TACTS buffer containing 0.5% BSA. (TACTS buffer contains 20mM Tris. HCl, pH 7.5, 0.02% sodium azide, 2 mM calcium chloride, 0.05% Tween 20, 150 mM sodium chloride.) The plate is washed with phosphate buffered saline containing 0.01% Tween 20 and a dilution of the sample to be determined added, followed by addition of solubilized llbllla receptor (40 ug/ml) in TACTS, 0.5% BSA. After incubation, the plate is washed and murine monoclonal anti-platelet antibody AP3 (1 ug/ml) added. After another wash goat and anti-mouse IgG conjugated to horseradish peroxidase is added. A final wash is performed and developing reagent buffer (10 mg o-phenylenediamine dihydrochloride, 0.0212% hydrogen peroxide, 0.22 mM citrate, 50 mM phosphate, pH 5.0) is added and then incubated until color developed. The reaction is stopped with 1N sulfuric acid and the absorbance at 492 nm is recorded.

[3] = GP IIbIIIa receptor assay for inhibition of fibrinogen binding, smaller ratio = more active

T1 sequence (P08514 32-887 limits assumed): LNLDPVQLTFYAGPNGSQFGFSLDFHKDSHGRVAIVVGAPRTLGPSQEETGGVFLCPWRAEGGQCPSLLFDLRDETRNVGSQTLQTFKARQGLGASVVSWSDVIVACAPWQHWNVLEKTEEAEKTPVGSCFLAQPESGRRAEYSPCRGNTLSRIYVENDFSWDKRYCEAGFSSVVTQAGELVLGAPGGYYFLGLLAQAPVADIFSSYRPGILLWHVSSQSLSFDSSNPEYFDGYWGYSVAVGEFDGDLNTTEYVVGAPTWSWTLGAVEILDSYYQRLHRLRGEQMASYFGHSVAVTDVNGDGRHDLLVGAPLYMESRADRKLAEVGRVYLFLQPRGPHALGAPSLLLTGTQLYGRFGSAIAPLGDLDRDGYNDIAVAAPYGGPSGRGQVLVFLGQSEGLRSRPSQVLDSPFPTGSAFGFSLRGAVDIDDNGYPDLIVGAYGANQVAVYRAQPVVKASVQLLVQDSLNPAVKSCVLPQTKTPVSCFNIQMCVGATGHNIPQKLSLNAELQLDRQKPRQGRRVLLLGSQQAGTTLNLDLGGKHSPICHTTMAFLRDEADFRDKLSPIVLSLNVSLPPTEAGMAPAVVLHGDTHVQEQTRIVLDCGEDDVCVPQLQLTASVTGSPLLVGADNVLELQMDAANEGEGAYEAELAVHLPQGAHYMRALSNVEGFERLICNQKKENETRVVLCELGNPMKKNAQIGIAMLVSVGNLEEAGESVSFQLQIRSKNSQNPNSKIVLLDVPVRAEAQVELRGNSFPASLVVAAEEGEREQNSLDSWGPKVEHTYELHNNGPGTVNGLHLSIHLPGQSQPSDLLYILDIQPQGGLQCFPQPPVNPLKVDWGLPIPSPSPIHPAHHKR
T1 sequence (P08514 891-1039 partner limits assumed): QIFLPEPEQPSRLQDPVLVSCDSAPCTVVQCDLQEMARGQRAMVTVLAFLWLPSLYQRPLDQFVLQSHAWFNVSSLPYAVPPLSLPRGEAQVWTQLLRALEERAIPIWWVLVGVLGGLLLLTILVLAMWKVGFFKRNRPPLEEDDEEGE
T1 sequence (P05106 27-788): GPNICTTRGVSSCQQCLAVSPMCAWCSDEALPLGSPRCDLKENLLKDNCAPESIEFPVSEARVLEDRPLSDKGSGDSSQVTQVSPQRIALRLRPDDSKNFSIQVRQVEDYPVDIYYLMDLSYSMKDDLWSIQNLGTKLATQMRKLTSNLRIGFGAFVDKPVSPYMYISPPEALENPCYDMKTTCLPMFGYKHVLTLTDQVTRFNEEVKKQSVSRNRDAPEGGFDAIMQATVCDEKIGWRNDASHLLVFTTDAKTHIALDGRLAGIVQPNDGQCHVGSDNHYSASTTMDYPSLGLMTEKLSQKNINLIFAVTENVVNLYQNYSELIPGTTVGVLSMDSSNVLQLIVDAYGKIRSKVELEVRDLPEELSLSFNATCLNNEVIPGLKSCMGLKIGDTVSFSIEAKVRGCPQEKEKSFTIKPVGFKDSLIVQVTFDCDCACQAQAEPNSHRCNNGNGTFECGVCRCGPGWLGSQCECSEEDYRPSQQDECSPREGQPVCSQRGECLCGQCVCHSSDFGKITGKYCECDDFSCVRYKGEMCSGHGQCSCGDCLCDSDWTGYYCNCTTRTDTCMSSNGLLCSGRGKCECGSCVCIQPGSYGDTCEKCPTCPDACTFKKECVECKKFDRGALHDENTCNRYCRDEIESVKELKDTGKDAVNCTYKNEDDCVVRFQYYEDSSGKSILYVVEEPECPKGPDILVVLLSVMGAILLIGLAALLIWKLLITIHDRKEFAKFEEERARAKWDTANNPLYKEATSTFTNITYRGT
human platelet rich plasma (PRP) platelets, sequence (P08514 32-1039): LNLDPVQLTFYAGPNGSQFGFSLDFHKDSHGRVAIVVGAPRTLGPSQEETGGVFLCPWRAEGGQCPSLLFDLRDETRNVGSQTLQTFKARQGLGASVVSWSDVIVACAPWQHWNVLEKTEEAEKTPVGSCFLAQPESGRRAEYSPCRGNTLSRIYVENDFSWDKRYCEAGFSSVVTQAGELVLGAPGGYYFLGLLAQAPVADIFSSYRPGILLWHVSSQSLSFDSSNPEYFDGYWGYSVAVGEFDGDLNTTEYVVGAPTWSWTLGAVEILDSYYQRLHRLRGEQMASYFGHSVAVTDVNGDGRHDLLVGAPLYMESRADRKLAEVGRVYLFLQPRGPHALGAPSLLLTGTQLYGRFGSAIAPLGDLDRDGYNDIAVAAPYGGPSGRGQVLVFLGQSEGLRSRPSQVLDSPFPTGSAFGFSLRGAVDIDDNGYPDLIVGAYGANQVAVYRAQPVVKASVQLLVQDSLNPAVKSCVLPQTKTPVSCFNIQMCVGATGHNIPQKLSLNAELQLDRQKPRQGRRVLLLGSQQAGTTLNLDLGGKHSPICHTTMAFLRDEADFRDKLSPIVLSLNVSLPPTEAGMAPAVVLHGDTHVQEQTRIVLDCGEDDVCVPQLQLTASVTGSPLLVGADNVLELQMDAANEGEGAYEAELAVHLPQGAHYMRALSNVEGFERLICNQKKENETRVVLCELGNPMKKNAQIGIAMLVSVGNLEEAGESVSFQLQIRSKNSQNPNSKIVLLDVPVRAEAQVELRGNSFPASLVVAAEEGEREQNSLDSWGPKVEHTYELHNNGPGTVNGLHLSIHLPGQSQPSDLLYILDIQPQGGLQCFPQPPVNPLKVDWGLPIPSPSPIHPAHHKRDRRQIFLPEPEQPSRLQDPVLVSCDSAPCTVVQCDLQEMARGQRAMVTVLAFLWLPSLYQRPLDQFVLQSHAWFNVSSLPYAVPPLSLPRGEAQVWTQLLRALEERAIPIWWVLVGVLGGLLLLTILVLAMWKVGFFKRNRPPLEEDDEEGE
human platelet rich plasma (PRP) platelets, sequence (P05106 27-788): as the sequence (P05106 27-788) above

N=C(N)NCCC[C@@H]1NC(=O)CNC(=O)CSC[C@@H](C(=O)O)NC(=O)[C@H](CC(=O)O)NC(=O)CNC1=O [cyclo-S-acetyl-Gly-Arg-Gly-Asp-Cys-OH] ({CH2CO}-GRGDC-OH; thioether N-5)
IC50 [1]: 8500 nM
IC50 [2]: 5 nM

N=C(N)NCCC[C@@H]1NC(=O)CNC(=O)CSC[C@@H](C(=O)O)NC(=O)[C@H](CC(=O)O)NC(=O)CNC1=O [Ex. 2, cyclo-S-acetyl-Gly-Arg-Gly-Asp-Cys-OH] ({CH2CO}-GRGDC-OH; thioether N-5)
IC50 [1]: 8000 nM
Ratio of IC50 of test compound to IC50 of Gly-Arg-Gly-Asp-Val [2, 3]: 0.14

N=C(N)NCCC[C@@H]1NC(=O)[C@H]2CCCN2C(=O)CSC[C@@H](C(=O)O)NC(=O)[C@H](CC(=O)O)NC(=O)CNC1=O [Ex. 13, cyclo-S-acetyl-(dPro)-Arg--Gly--Asp--Cys--OH] ({CH2CO}-[dP]RGDC-OH; thioether N-5)
IC50 [1]: 2000 nM
Ratio of IC50 of test compound to IC50 of Gly-Arg-Gly-Asp-Val [2, 3]: 0.05

C[C@@H](O)[C@@H]1NC(=O)CSC[C@@H](C(=O)O)NC(=O)[C@H](CC(=O)O)NC(=O)CNC(=O)[C@H](CCCNC(=N)N)NC1=O [Ex. 6, cyclo-S-acetyl-Thr--Arg--Gly--Asp--Cys--OH] ({CH2CO}-TRGDC-OH; thioether N-5)
Ratio of IC50 of test compound to IC50 of Gly-Arg-Gly-Asp-Val [2]: 0.46

N=C(N)NCCC[C@@H]1NC(=O)[C@@H](CC(N)=O)NC(=O)CSC[C@@H](C(=O)O)NC(=O)[C@H](CC(=O)O)NC(=O)CNC1=O [Ex. 5, cyclo-S-acetyl-(dAsn)-Arg--Gly--Asp--Cys--OH] ({CH2CO}-[dN]RGDC-OH; thioether N-5)
Ratio of IC50 of test compound to IC50 of Gly-Arg-Gly-Asp-Val [2]: 0.14

C[C@@H]1NC(=O)CSC[C@@H](C(=O)O)NC(=O)[C@H](CC(=O)O)NC(=O)CNC(=O)[C@H](CCCNC(=N)N)NC1=O [Ex. 8, cyclo-S-acetyl-Ala--Arg--Gly--Asp--Cys--OH] ({CH2CO}-ARGDC-OH; thioether N-5)
Ratio of IC50 of test compound to IC50 of Gly-Arg-Gly-Asp-Val [2]: 0.5

N=C(N)NCCC[C@H](N)C(=O)NCC(=O)N[C@@H](CC(=O)O)C(=O)N[C@@H](CO)C(=O)O [Arg--Gly--Asp--Ser, reference compound]
Ratio of IC50 of test compound to IC50 of Gly-Arg-Gly-Asp-Val [2]: > 20

N=C(N)NCCC[C@@H]1NC(=O)CNC(=O)C(c2ccccc2)SC[C@@H](C(=O)O)NC(=O)[C@H](CC(=O)O)NC(=O)CNC1=O (some centres unmarked) [Ex. 18, cyclo-S-Phenylacetyl-Gly--Arg--Gly--Asp--Cys--OH]
IC50 [1]: 3000 nM

C[C@H](O)[C@H]1NC(=O)CSC[C@@H](C(=O)O)NC(=O)[C@H](CC(=O)O)NC(=O)CNC(=O)[C@H](CCCNC(=N)N)NC1=O [Ex. 7, Cyclo-S-acetyl-(d-Thr)-Arg-Gly-Asp-Cys-OH] ({CH2CO}-[dT]RGDC-OH; thioether N-5)
Ratio of IC50 of test compound to IC50 of Gly-Arg-Gly-Asp-Val [2, 3]: 0.07

C[C@H]1NC(=O)CSC[C@@H](C(=O)O)NC(=O)[C@H](CC(=O)O)NC(=O)CNC(=O)[C@H](CCCNC(=N)N)NC1=O [Ex. 9, cyclo-S-acetyl-(dAla)-Arg--Gly--Asp--Cys--OH] ({CH2CO}-[dA]RGDC-OH; thioether N-5)
IC50 [1]: 3000 nM
Ratio of IC50 of test compound to IC50 of Gly-Arg-Gly-Asp-Val [2, 3]: 0.13

GRGDV [Gly--Arg--Gly--Asp--Val, reference compound] [listing 1 of 2 here]
IC50 [2]: 20 to 40 nM

N=C(N)NCCC[C@@H]1NC(=O)[C@H](Cc2ccc(O)cc2)NC(=O)CSC[C@@H](C(=O)O)NC(=O)[C@H](CC(=O)O)NC(=O)CNC1=O [Ex. 10, cyclo-S-acetyl-Tyr--Arg--Gly--Asp--Cys--OH] ({CH2CO}-YRGDC-OH; thioether N-5)
Ratio of IC50 of test compound to IC50 of Gly-Arg-Gly-Asp-Val [2]: 0.38

CC(C)[C@H](NC(=O)[C@H](CC(=O)O)NC(=O)CNC(=O)[C@@H](N)CCCNC(=N)N)C(=O)O [Arg--Gly--Asp--Val, reference compound] (H-RGDV-OH)
Ratio of IC50 of test compound to IC50 of Gly-Arg-Gly-Asp-Val [2]: 3

GRGDV [Gly--Arg--Gly--Asp--Val, reference compound] [listing 2 of 2 here]
Ratio of IC50 of test compound to IC50 of Gly-Arg-Gly-Asp-Val [2, 3]: 1

N=C(N)NCCC[C@@H]1NC(=O)[C@@H]2CCCN2C(=O)CSC[C@@H](C(=O)O)NC(=O)[C@H](CC(=O)O)NC(=O)CNC1=O [Ex. 12, cyclo-S-acetyl-Pro--Arg--Gly--Asp--Cys--OH] ({CH2CO}-PRGDC-OH; thioether N-5)
Ratio of IC50 of test compound to IC50 of Gly-Arg-Gly-Asp-Val [2]: 0.46

C[C@H](O)[C@H]1NC(=O)CSC[C@@H](C(=O)O)NC(=O)[C@H](CC(=O)O)NC(=O)CNC(=O)[C@H](CCCN=C(N)N)NC1=O [Ex. 7, Cyclo-S-acetyl-(d-Thr)-Arg-Gly-Asp-Cys-OH] ({CH2CO}-[dT]RGDC-OH; thioether N-5)
IC50 [1]: 800 nM
